Assay results from article PMC5612938, “A multiple biomarker assay for quality assessment of botanical drugs using a versatile microfluidic chip” (Scientific Reports, 2017).

Columns and labels:
[1] = target: T1, Thrombin (from human plasma) (Homo sapiens, UniProt P00734); test: on-chip affinity screening, binding degree by LC-MS peak area vs protein-free control (thrombin); settings: for thrombin; [(As − Ac)/As] × 100, sample vs protein-free control, EIC peak area
T1 construct: Thrombin (from human plasma); purchased Sigma-Aldrich; host or cells: human plasma
Text: In addition to quality assessment, the microfluidic chip can also function as “affinity chromatography” to identify bioactive constituents from botanical drugs in a convenient and efficient manner. After the bioassay, the bound phytochemicals were dissociated from the enzymes and accurately identified by LC-MS. The material used for the chambers in microfluidic system, polydimethylsiloxane (PDMS), is apt to adsorb small molecules nonspecifically, thus a protein-free control was applied to reflect the degree of nonspecific binding of compounds to the chip. Peak areas were obtained from the extracted ion chromatography (EIC) in an ion-trap mass spectrometry (IT-MS), and binding degree (binding degree % = [(As − Ac)/As] × 100, where As and Ac were the peak area in the sample and control, respectively) was calculated to indicate binding specificity. […] All these peaks were unambiguously confirmed via comparisons with chemical standards in terms of retention time and mass spectra (Table 2), and five thrombin inhibitors (danshensu, salvianolic acid B, salvianolic acid C, rosmarinic acid and ginsenoside Rg1) and six ACE inhibitors (astragaloside IV, ononin, formononetin, calycosin, danshensu and salvianolic acid B) were preliminarily identified. […] Enzyme inhibition assays of these hit compounds were then performed to verify the screening results. […] Compounds showing an inhibition rate over 70% were subjected to IC50 measurement.
(§1) MBs (10 mg/mL) were diluted 10 times in PB or Tris-HCl buffer, and 10 μL of the diluted MBs (1 mg/mL) were injected into one channel of the chip using a syringe infusion pump (Harvard Apparatus, USA) and retained by an external magnet. Then, 10 μL of thrombin or ACE solution was added and incubated with MBs for two hours at room temperature to form enzyme-MB complexes. The magnet was manually controlled to move MBs back and forth to enhance the ratio of reaction. Subsequently, MBs were washed twice in assay buffer and magnetically transferred to the other channel through the fluidic bridge, whose opening and closing was controlled by a pneumatic valve. Next, 10 μL of sample solutions of tested drug and 10 μL of enzymatic substrate were sequentially infused to the channel by the pump and incubated with the enzyme. When the enzymatic reaction was finished, the MBs were retained in the channel, and air was injected into the channel from the inlet using a syringe to push all the reacted solution to a 384-well plate. The absorbance of the solution was then monitored at 405 nm (for S-2238) or 340 nm (for FAPGG) using an Infinite F200 spectrophotometer (Tecan, Männedorf, Switzerland). Moreover, after detection, the reaction channel was washed three times by assay buffer to remove unbound constituents. 20 μL of 80% aqueous methanol was then injected and incubated with MBs for one hour to dissociate the bound constituents. The resulting solutions of replicates were combined, evaporated by a centrifugal evaporator, reconstituted in 80% aqueous methanol, centrifuged at 10,000 rpm for 10 min, and analyzed by LC-MS for chemical identification.
An Agilent 1100 HPLC system (Agilent Technologies, Waldbronn, Germany) coupled with an LCQ Deca XP^plus IT-MS (Thermo Finnigan, San Jose, CA, USA) equipped with an electrospray ionization (ESI) interface was employed for structure elucidation of the bounded constituents. […]

[2] = target: T1, Thrombin (from human plasma); test: on-chip thrombin inhibition assay (S-2238 hydrolysis, absorbance 405 nm); format: biochemical; settings: for thrombin inhibition (in words): at tested concentrations
Experimental: To enhance the performance of the on-chip assay, experimental parameters such as concentrations of enzymes and substrates, substrate reaction time, and incubation time of samples and enzymes were stepwise optimized. The activity of thrombin was determined by measuring the hydrolysis of chromogenic substrate S-2238 (HD-Phe-Pip-Arg-pNA) at 405 nm. As depicted in Fig. 2a, the absorbance increased rapidly along with the elevated concentrations of thrombin, while it reached a plateau at 0.5 U/mL. […] Moreover, it was clear from Fig. 2d that the maximum inhibitory effect of QSYQ sample (I1 of Table 1 in this assay) on thrombin was observed after 60 min of incubation. Therefore, to achieve favorable response and prevent signal saturation, optimal assay conditions for thrombin were determined to be 0.2 U/mL, 0.31 mM, 30 min and 60 min for the final concentrations of thrombin and S-2238, substrate reaction time and incubation time, respectively. […] In this assay, the concentrations of ACE and FAPGG were finally set at 0.027 U/mL and 0.72 mM, where the background value was lower and the reaction time was relatively shorter (30 min).
The optimized protocol was first applied to assess the quality of 11 batches of QSYQ intermediates (Table 1). Enzyme inhibition (in percentages) was employed as an indicator of drug quality and calculated according to the following equations: thrombin inhibition (%) = [1 − (AQSYQ/Ablank)] × 100; ACE inhibition (%) = [1 − (ΔAQSYQ/ΔAblank)] × 100; where AQSYQ and Ablank were the absorbance of the test sample and the blank sample after the enzymatic reaction (the background value was subtracted), and ΔAQSYQ and ΔAblank were the absorbance decrease between 0 min and 30 min of the samples. A scatter plot was generated to display the inhibition result of thrombin and ACE simultaneously. […] Moreover, artificial abnormal samples I6, I7 and I8, each with one abnormal (pre-extracted) herb, presented relatively lower inhibitions compared with I1.
Thrombin (from human plasma), ACE (from rabbit lung), FAPGG and captopril were purchased from Sigma-Aldrich (St. Louis, USA). S-2238 was obtained from Aglyco (Beijing, China). AEBSF-HCl was purchased from Selleckchem (Houston, USA). Trizma base (Tris) was obtained from Sangon Biotech (Shanghai, China) and dimethyl sulfoxide (DMSO) from J&K Scientific (Beijing, China). All other chemicals were purchased from Sinopharm Chemical (Shanghai, China) unless otherwise indicated. 0.2 M Phosphate buffer (PB, pH 6.5), and 50 mM Tris-HCl buffer (200 mM NaCl, pH 8.3) were prepared as assay buffers for thrombin and ACE, respectively.
as §1, with “20 μL of 80% aqueous methanol was then injected and incubated with MBs for one hour to dissociate the bound constituents. The resulting solutions of replicates were combined, evaporated by a centrifugal evaporator, reconstituted in 80% aqueous methanol, centrifuged at 10,000 rpm for 10 min, and analyzed by LC-MS for chemical identification.” left out

inhibition rate ([2]; for thrombin, maximum inhibition rate observed in the assay) [%]	SMILES	Binding degree (%) [1] [%]	thrombin inhibition (in words) [2]	IC50 ([2]; for thrombin) [µM]
66.9	O=C(O)C(O)Cc1ccc(O)c(O)c1 (stereo not drawn) [Danshensu]	50.9	good thrombin inhibitions	
	O=C(/C=C/c1ccc(O)c2c1[C@H](C(=O)O[C@H](Cc1ccc(O)c(O)c1)C(=O)O)[C@@H](c1ccc(O)c(O)c1)O2)O[C@H](Cc1ccc(O)c(O)c1)C(=O)O [Salvianolic acid B]	34.9	good thrombin inhibitions	81.9
